Assay results reported in patent US20150313228A1, “SYNERGISTIC HERBICIDAL COMBINATIONS AND METHODS OF USE” (priority 2012, published 2015).

Legend:
[1] = system: broad-leaf and grass weed species; experiment: Field testing of pre-emergence application of dicamba and acetochlor in Argentina and/or South Africa (Example 10); details: for percent control Y (DIACAMBA OR ATRAZINE ALONE): early rating (14 day); for Y (dicamba alone): late rating (28 day);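 on all read-outs here: percent weed control in field trials, rated at 14 days (early) and 28 days (late) after treatment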
[2] = system: velvetleaf; experiment: Post-emergence application in velvetleaf under greenhouse conditions (Example 8); type: in vivo
From the text: The following testing protocol was employed to evaluate the post-emergence application of herbicides and herbicide combinations as described in the following examples unless otherwise specified. The weed species to be treated were planted in 3.5 inch pots containing redi-earth potting mix and grown under greenhouse conditions. When the weed species reached a height of about four inches, herbicide was applied at the specified application rate using a track sprayer with a flat even nozzle type, 9501E nozzle size, and spray pressure of 165 kPa. After the application of the herbicide(s), the pots were only sub-irrigated as needed. Throughout the test period, temperature was maintained from about 20° C. to about 30° C. and relative humidity was maintained at about 30%. The plants were rated visually and percentage of weed control was determined for each treatment at 15 to 21 days after herbicide application.
Post-emergence application of several herbicides and herbicide combinations was evaluated in velvetleaf under greenhouse conditions. The plants were rated visually and percentage of weed control was determined at 24 days after herbicide application. The herbicides and herbicide combinations evaluated are listed in Table 8-A below together with the corresponding percent control data. The data represent an average value (n=6).
The results of the analysis are reported below in Table 8-B (glyphosate+dicamba), Table 8-C(glyphosate+metribuzin), and Table 8-D (dicamba+metribuzin).

COc1c(Cl)ccc(Cl)c1C(=O)O [Dicamba, 3,6-dichloro-2-methoxy benzoic acid]
percent control Y (DIACAMBA OR ATRAZINE ALONE) ([1]; AMADE, 560 g/ha): 99.3%
Y (dicamba alone) ([1]; AMADE, 560 g/ha): 83.1%
percent control Y (DIACAMBA OR ATRAZINE ALONE) ([1]; AMAQU, 280 g/ha): 52.9%
Y (dicamba alone) ([1]; AMAQU, 280 g/ha): 40.6%
percent control Y (DIACAMBA OR ATRAZINE ALONE) ([1]; AMAQU, 560 g/ha): 61.4%
Y (dicamba alone) ([1]; AMAQU, 560 g/ha): 54.3%
percent control Y (DIACAMBA OR ATRAZINE ALONE) ([1]; ANOCR, 280 g/ha): 53.0%
Y (dicamba alone) ([1]; ANOCR, 280 g/ha): 40.5%
percent control Y (DIACAMBA OR ATRAZINE ALONE) ([1]; ANOCR, 560 g/ha): 66.1%
Y (dicamba alone) ([1]; ANOCR, 560 g/ha): 54.5%
percent control Y (DIACAMBA OR ATRAZINE ALONE) ([1]; BIDPI, 280 g/ha): 2.3%
Y (dicamba alone) ([1]; BIDPI, 280 g/ha): 5.0%
percent control Y (DIACAMBA OR ATRAZINE ALONE) ([1]; BIDPI, 560 g/ha): 74.5%
Y (dicamba alone) ([1]; BIDPI, 560 g/ha): 72.5%
Y (dicamba alone) ([1]; BRAER, 560 g/ha): 67.5%
percent control Y (DIACAMBA OR ATRAZINE ALONE) ([1]; CHEAL, 280 g/ha): 56.7%
Y (dicamba alone) ([1]; CHEAL, 280 g/ha): 38.2%
percent control Y (DIACAMBA OR ATRAZINE ALONE) ([1]; CHEAL, 560 g/ha): 96.7%
Y (dicamba alone) ([1]; CHEAL, 560 g/ha): 86.7%
Y (dicamba alone) ([1]; CHRGA, 280 g/ha): 6.2%
percent control Y (DIACAMBA OR ATRAZINE ALONE) ([1]; CHRGA, 560 g/ha): 98.0%
Y (dicamba alone) ([1]; CHRGA, 560 g/ha): 100.0%
percent control Y (DIACAMBA OR ATRAZINE ALONE) ([1]; COMBE, 280 g/ha): 2.7%
Y (dicamba alone) ([1]; COMBE, 280 g/ha): 10.0%
percent control Y (DIACAMBA OR ATRAZINE ALONE) ([1]; COMBE, 560 g/ha): 75.0%
Y (dicamba alone) ([1]; COMBE, 560 g/ha): 76.3%
percent control Y (DIACAMBA OR ATRAZINE ALONE) ([1]; CONFA, 280 g/ha): 1.3%
Y (dicamba alone) ([1]; CONFA, 280 g/ha): 6.2%
percent control Y (DIACAMBA OR ATRAZINE ALONE) ([1]; CONFA, 560 g/ha): 17.5%
Y (dicamba alone) ([1]; CONFA, 560 g/ha): 55.0%
percent control Y (DIACAMBA OR ATRAZINE ALONE) ([1]; CYNDA, 280 g/ha): 28.8%
percent control Y (DIACAMBA OR ATRAZINE ALONE) ([1]; CYNDA, 560 g/ha): 47.7%
percent control Y (DIACAMBA OR ATRAZINE ALONE) ([1]; CYPES, 280 g/ha): 1.0%
Y (dicamba alone) ([1]; CYPES, 280 g/ha): 5.0%
percent control Y (DIACAMBA OR ATRAZINE ALONE) ([1]; CYPES, 560 g/ha): 65.0%
Y (dicamba alone) ([1]; CYPES, 560 g/ha): 63.3%
percent control Y (DIACAMBA OR ATRAZINE ALONE) ([1]; CYPRO, 280 g/ha): 42.3%
Y (dicamba alone) ([1]; CYPRO, 280 g/ha): 0.8%
percent control Y (DIACAMBA OR ATRAZINE ALONE) ([1]; CYPRO, 560 g/ha): 44.4%
Y (dicamba alone) ([1]; CYPRO, 560 g/ha): 15.4%
percent control Y (DIACAMBA OR ATRAZINE ALONE) ([1]; DATFE, 280 g/ha): 18.5%
Y (dicamba alone) ([1]; DATFE, 280 g/ha): 16.7%
percent control Y (DIACAMBA OR ATRAZINE ALONE) ([1]; DATFE, 560 g/ha): 59.6%
Y (dicamba alone) ([1]; DATFE, 560 g/ha): 58.5%
percent control Y (DIACAMBA OR ATRAZINE ALONE) ([1]; DIGER, 280 g/ha): 2.5%
Y (dicamba alone) ([1]; DIGER, 280 g/ha): 10.0%
percent control Y (DIACAMBA OR ATRAZINE ALONE) ([1]; DIGER, 560 g/ha): 98.0%
Y (dicamba alone) ([1]; DIGER, 560 g/ha): 100.0%
percent control Y (DIACAMBA OR ATRAZINE ALONE) ([1]; DIGSA, 280 g/ha): 32.7%
Y (dicamba alone) ([1]; DIGSA, 280 g/ha): 23.8%
percent control Y (DIACAMBA OR ATRAZINE ALONE) ([1]; DIGSA, 560 g/ha): 45.6%
Y (dicamba alone) ([1]; DIGSA, 560 g/ha): 32.7%
Y (dicamba alone) ([1]; DTTAE, 280 g/ha): 6.2%
Y (dicamba alone) ([1]; DTTAE, 560 g/ha): 100.0%
percent control Y (DIACAMBA OR ATRAZINE ALONE) ([1]; ELEAF, 280 g/ha): 100.0%
Y (dicamba alone) ([1]; ELEAF, 280 g/ha): 8.0%
percent control Y (DIACAMBA OR ATRAZINE ALONE) ([1]; ELEAF, 560 g/ha): 100.0%
Y (dicamba alone) ([1]; ELEAF, 560 g/ha): 97.5%
percent control Y (DIACAMBA OR ATRAZINE ALONE) ([1]; HIBCA, 280 g/ha): 1.8%
Y (dicamba alone) ([1]; HIBCA, 280 g/ha): 11.3%
percent control Y (DIACAMBA OR ATRAZINE ALONE) ([1]; HIBCA, 560 g/ha): 42.5%
Y (dicamba alone) ([1]; HIBCA, 560 g/ha): 55.0%
Y (dicamba alone) ([1]; IPOBA, 280 g/ha): 8.8%
Y (dicamba alone) ([1]; IPOBA, 560 g/ha): 0.0%
percent control Y (DIACAMBA OR ATRAZINE ALONE) ([1]; IPOPD, 280 g/ha): 2.6%
Y (dicamba alone) ([1]; IPOPD, 280 g/ha): 10.0%
percent control Y (DIACAMBA OR ATRAZINE ALONE) ([1]; IPOPD, 560 g/ha): 21.3%
Y (dicamba alone) ([1]; IPOPD, 560 g/ha): 45.0%
percent control Y (DIACAMBA OR ATRAZINE ALONE) ([1]; OVERALL, 280 g/ha): 36.2%
percent control Y (DIACAMBA OR ATRAZINE ALONE) ([1]; OVERALL, 560 g/ha): 57.4%
Y (dicamba alone) ([1]; Overall, 280 g/ha): 29.8%
Y (dicamba alone) ([1]; Overall, 560 g/ha): 51.7%
percent control Y (DIACAMBA OR ATRAZINE ALONE) ([1]; PERCENT WEED FREE, 280 g/ha): 64.5%
percent control Y (DIACAMBA OR ATRAZINE ALONE) ([1]; PERCENT WEED FREE, 560 g/ha): 74.2%
percent control Y (DIACAMBA OR ATRAZINE ALONE) ([1]; POROL, 280 g/ha): 35.8%
Y (dicamba alone) ([1]; POROL, 280 g/ha): 27.8%
percent control Y (DIACAMBA OR ATRAZINE ALONE) ([1]; POROL, 560 g/ha): 49.2%
Y (dicamba alone) ([1]; POROL, 560 g/ha): 45.0%
Y (dicamba alone) ([1]; Percent Weed Free, 280 g/ha): 43.4%
Y (dicamba alone) ([1]; Percent Weed Free, 560 g/ha): 54.3%
percent control Y (DIACAMBA OR ATRAZINE ALONE) ([1]; RCHBR, 280 g/ha): 2.4%
Y (dicamba alone) ([1]; RCHBR, 280 g/ha): 8.5%
percent control Y (DIACAMBA OR ATRAZINE ALONE) ([1]; RCHBR, 560 g/ha): 89.0%
Y (dicamba alone) ([1]; RCHBR, 560 g/ha): 88.8%
percent control Y (DIACAMBA OR ATRAZINE ALONE) ([1]; TAGMI, 280 g/ha): 0.0%
Y (dicamba alone) ([1]; TAGMI, 280 g/ha): 0.0%
percent control Y (DIACAMBA OR ATRAZINE ALONE) ([1]; TAGMI, 560 g/ha): 92.5%
Y (dicamba alone) ([1]; TAGMI, 560 g/ha): 64.3%
percent control Y (DIACAMBA OR ATRAZINE ALONE) ([1]; XANST, 280 g/ha): 15.3%
Y (dicamba alone) ([1]; XANST, 280 g/ha): 28.8%
percent control Y (DIACAMBA OR ATRAZINE ALONE) ([1]; XANST, 560 g/ha): 43.3%
Y (dicamba alone) ([1]; XANST, 560 g/ha): 32.5%
PERCENT CONTROL (ACTUAL) ([2]; 280 g/ha, 24 days after application): 82.0%
PERCENT CONTROL (ACTUAL) ([2]; 560 g/ha, 24 days after application): 95.0%
PERCENT CONTROL (ACTUAL) ([2]; Table 8-D, velvetleaf, 24 days, dose 280 g/ha): 82.0%
PERCENT CONTROL (ACTUAL) ([2]; Table 8-D, velvetleaf, 24 days, dose 560 g/ha): 95.0%
